In experiment [1] the test system is Kuramochi ovarian cancer cells. Description: MTT assay, cell viability of Kuramochi. The settings on record: read-out: IC50 against Kuramochi. In kind it is cell-based. As to the method:
(§1) An MTT assay was used to test the cytotoxicity. All different cell lines were seeded in 96-well plates at 1×10^5 cells/well for 24 hours followed by removal of the culture medium and subsequent addition of culture medium containing different concentrations of the precursors. At designated time (24/48/72 hours), 10 μL MTT solution (5 mg/mL) was added to each well and incubated at 37° C. for another 4 hours, and then 100 μL of SDS-HCl solution was added to stop the reduction reaction and dissolve the purple formazan. The absorbance of each well at 595 nm was measured by a multimode microplate reader. The cytotoxicity assay was performed three times and the average value of the three measurements was taken.
(§2) Additional cell viability assays were carried out using conjugates 1a and 1b, optionally with 3, against HepG2 human liver carcinoma cells, Saos-2 osteosarcoma cells, T98G glioblastoma cells, HS-5 (normal bone marrow stromal cells), A2780 ovarian cancer cells (parental line to A2780cis), and Kuramochi ovarian cancer cells. Conjugate 1a was particularly effective against ovarian and cervical cancer cells.
For orientation: Tetrazolium assays rely on reduction of a dye to a coloured formazan, in cell work by metabolically active cells.

In experiment [2] the test system is Saos-2 osteosarcoma cells. The experiment is described as follows: MTT assay, cell viability of Saos-2. The experiment is classed as cell-based. The settings on record: Homo sapiens, read-out: IC50 against Saos-2. As to the method: (§3) HeLa, Saos-2, HS-5, HepG2, T98G, and A2780 cells were purchased from American-type Culture Collection (ATCC, USA). A2780cis cell was purchased from Sigma. HeLa cells, HepG-2 cells, and T98G cells were cultured in MEM Medium supplemented with 10% v/v fetal bovine serum, 100 U/mL penicillin, and 100 μg/mL streptomycin. Saos-2 cells were cultured in McCoy's 5a Medium (for Saos-2) supplemented with 15% v/v fetal bovine serum, 100 U/mL penicillin, and 100 μg/mL streptomycin. HS-5 cells were cultured in Dulbecco's Modified Eagle's medium (DMEM) supplemented with 10% v fetal bovine serum (FBS), 100 U/mL penicillin, and 100 μg/mL streptomycin. A2780cis cells were cultured in RPMI 1640 Medium supplemented with 10% v/v fetal bovine serum, 100 U/mL penicillin, and 100 μg/mL streptomycin (cisplatin only necessary every 2-3 passages). All cells were maintained at 37° C. in a humidified atmosphere of 5% CO2.
(§4) An MTT assay was used to test the cytotoxicity. All different cell lines were seeded in 96-well plates at 1×10^5 cells/well for 24 hours followed by removal of the culture medium and subsequent addition of culture medium containing different concentrations of the precursors. […] The absorbance of each well at 595 nm was measured by a multimode microplate reader. […]

The subject of experiment [3] is HeLa cells. The experiment is described as follows: MTT assay, cytotoxicity against HeLa. In kind it is cell-based, human. As to the method:
as §3, §1
To confirm that assemblies of the cholesterol conjugate are able to inhibit other cancer cell lines, 1a was incubated with HeLa cells, a widely studied malignant cervical cancer cell line.

Experiment [4] has as its system HS-5 cell line (human bone marrow stroma cell line). Description: MTT assay, cell viability of HS-5. The experiment is classed as cell-based. The settings on record: for IC50: Homo sapiens, HS5, read-out: IC50 against HS-5. Here is the method: as §3, §1
To verify the selectivity of 1a against cancer cells, the HS-5 cell line (human bone marrow stroma cell line) was used; HS-5 hardly overexpresses ALP on cell surface. […] To further confirm that ALP on cell surface (i.e., as an ectophosphatase) contributed to the inhibitory activity of 1a, A2780cis were incubated with 1a and ALP (1 U/mL).
as §2

Experiment [5] relates to A2780cis cell lines. Description: Combination of 1a with other anti-cancer agents. The experiment is classed as cell-based, human. The settings on record: mixture of 1a with TIC10, Apo2L/TRAIL or doxorubicin. As to the method:
In addition, 1a causes down regulation of cell survival proteins, Akt (Alexander, “Inhibiting the Akt Pathway in Cancer Treatment,” Pharmacy & Therapeutics 36(4): 225-227 (2011), which is hereby incorporated by reference in its entirety) and Src (Irby et al., “Role of Src Expression and Activation in Human Cancer,” Oncogene 19(49):5636-5642 (2000), which is hereby incorporated by reference in its entirety). Treatment of A2780cis cell lines with 1a (12.5 μM) for 24 hours downregulates expression of Src (FIGS. 13A-B) and Akt (FIGS. 13C-D). […] When used in combination with other anti-cancer agents, TIC10, Apo2L/TRAIL, and doxorubicin, a mixture of 1a with the individual anti-cancer agents was prepared, and then the cells were incubated with the mixture.

The test system of experiment [6] is A2780 cell line. The experiment is described as follows: Cell viability of unstimulated or selected A2780 cell line (acquired resistance). The settings on record: after five weeks treatment with gradually increased concentrations; 24, 48, 72 h. In kind it is cell-based. Here is the method:
as §1
The activity of 1a against non-drug resistant cancer cells was assessed using the A2780 cell line.

Experiment [7] relates to F-actin in HeLa cells. Description: Actin staining (CLSM), HeLa. The experiment is classed as cell-based, human. The settings on record: 1a 25 μM, 12 hours. Here is the method: Cells in exponential growth phase were seeded in confocal dish (3.5 cm) at 1×10^5 to 2×10^5 cells per dish. After putting the dish in incubator for 24 hours, culture medium was removed, and fresh medium containing precursor (12.5 μM 1a for A2780cis, 25 μM 1a for HeLa) was added. After 12 hours, the medium was removed and PBS was used to wash the cells for three times. After fixing by 4% paraformaldehyde for 15 minutes, 1 mL of 0.1% Triton X-100 in PBS buffer was added for 30 minutes. After washing the cells three times by PBS, 1 mL of 0.1% BSA in PBS was added for 30 minutes, and then the cells were washed by PBS for three times. 1 mL of PBS containing 5 unit of Alexa 633 was added to the cells for 1 hour. After removing the buffer and washing the cells three times by PBS, 1 mL of Hoechst (1 μg/mL) was added for 10 minutes. Then, the cells were washed three times with PBS buffer before imaging.
Similar to the case of A2780cis, the change of the viability of the HeLa cells co-incubated with 1a and several specific inhibitors was examined to understand the mechanism of cell death. […] To verify the assemblies of 1b interact with F-actin, actin tracker was used to visualize F-actin filament in HeLa cells.

Experiment [8] has as its system lipid rafts in A2780cis cells. The experiment is described as follows: Laurdan staining of lipid rafts, A2780cis. The experiment is classed as cell-based, human. The settings on record: 1a 12.5 μM, 12 hours, 10 μM laurdan. An excerpt: Considering that cholesterol is the basic component of lipid rafts, dynamic assemblies in cell membrane (Simons et al., “Functional Rafts in Cell Membranes,” Nature 387:569 (1997), which is hereby incorporated by reference in its entirety), laurdan, a commonly used probe for the polarity membrane (Parasassi et al., “Quantitation of Lipid Phases in Phospholipid Vesicles by the Generalized Polarization of Laurdan Fluorescence,” Biophys. J. 60:179 (1991), which is hereby incorporated by reference in its entirety), was used to examine the changes of lipid rafts upon the EISA of […]. Without treatment of 1a, the fluorescence of laurdan dispersed relatively evenly in the whole cell membrane (FIG. 8C).

Experiment [9] has as its system HepG2 human liver carcinoma cells. Description: MTT assay, cell viability of HepG2. The experiment is classed as cell-based. The settings on record: read-out: IC50 against HepG-2. As to the method: as §3, §4

SMILES strings stand for the structures. Where two headings read alike, the source gives them in different places.

For orientation: IC50 means the concentration that inhibits the measured activity by half.

Consider `CC(C)CCC[C@@H](C)C1CC[C@H]2[C@@H]3CC=C4CC(OC(=O)NC(Cc5ccc(OP(=O)(O)O)cc5)C(=O)O)CC[C@]4(C)[C@H]3CC[C@]12C` (stereo partly drawn) [1a, Cholesterol-(phospho)D-Tyr], for which the IC50 in experiment [1] (48 hours) came to 19 µM; in [1] (72 hours), 13 µM; in [2] (48 hours), 41 µM; in experiment [2] (72 hours), 26 µM; in experiment [3] (48 hours, read-out: IC50 against HeLa cell) it was 19 µM; in experiment [3] (Homo sapiens, HeLa, 48 h, read-out: IC50 against HeLa cell), 18.6 µM. The IC50 was 16 µM in [3] (Homo sapiens, HeLa, 72 h, read-out: IC50 against HeLa); 32 µM in experiment [4] (48 hours); 21 µM in experiment [4] (72 hours); 45 µM in [9] (48 hours); 35 µM in experiment [9] (72 hours). Besides, the “viability of HeLa cell treated by 1a with phosphatase or cell death signaling inhibitors” value in experiment [3] (1a 12.5 μM + ALP, L-Phe, levamisole, zVAD-fmk, PJ34 or Nec-1, 48 hours) is given as “significantly increased the viability”. The “viability of HeLa cells” value in [3] (treated by 1a, 24 hours) is reported as “most HeLa cells were viable”. For the same molecule, the “cell viability / proliferation of HS-5” value in experiment [4] (12.5 μM, 48 hours (FIG. 5A)) was “innocuous”. Moreover, in experiment [5], the “effect of combination treatments” value was “synergistic effects”. Besides, the “inhibition of A2780 and acquired drug resistance” value in experiment [6] is reported as “able to inhibit ovarian cancer cells without acquired drug resistance”. Further, the F-actin filaments entry in experiment [7] is reported as “considerably decreased actin filaments”. The “laurdan fluorescence in cell membrane (lipid rafts)” value in [8] was “increased inhomogeneity of the fluorescence”.

The record behind these values is patent publication US11040108B2, “Amino acid- and peptide-steroid conjugates and use thereof” (BRANDEIS UNIVERSITY, priority 2016, dated 2021).
